# Measurements: patent publication US20250179061A1 (SIRONAX LTD., priority 2022, published 2025)
# Test system: HT-29 cells
# Experiment: HT-29 necroptosis cell viability assay (TNF-α/SMAC mimetic/zVAD-FMK, CellTiter-Glo)
# Assay type: cell-based
# Conditions: Homo sapiens, HT-29, HT-29 necroptosis cell viability, IC50 class symbols; read-out: Activity
# Summary of the method: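 HT-29 cells (~5,000/well, overnight) in FBS-free McCoy's 5A with TNF-α 10 ng/ml, SMAC mimetic 6 μM and zVAD-FMK 10 μM plus 10-point 1:3 compound titration, 20 h at 37°C. ATP measured by CellTiter-Glo luminescence; IC50 as geometric mean of duplicates.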
row,Compound,IC50
1,"CC(C)(C)OC1CN(c2nccc(Oc3ccc(-n4ncn(Cc5c(F)cccc5F)c4=O)cc3)c2F)C1 [Example 303, 2-(4-((2-(3-(tert-butoxy)azetidin-1-yl)-3-fluoropyridin-4-yl)oxy)phenyl)-4-(2,6-difluorobenzyl)-2,4-dihydro-3H-1,2,4-triazol-3-one]",< 100 nM
2,"CCOC1CN(c2nccc(Oc3ccc(-n4nc(C)n(Cc5ccccc5)c4=O)cc3)c2F)C1 [Example 304, 4-benzyl-2-[4-[[2-(3-ethoxyazetidin-1-yl)-3-fluoro-4-pyridyl]oxy]phenyl]-5-methyl-1,2,4-triazol-3-one]",100 to 1000 nM
3,"CCOC1CN(c2nccc(Cl)c2Oc2ccc(-n3nc(C)n(Cc4ccccc4)c3=O)cc2)C1 [Example 305, 4-benzyl-2-[4-[[4-chloro-2-(3-ethoxyazetidin-1-yl)-3-pyridyl]oxy]phenyl]-5-methyl-1,2,4-triazol-3-one]",100 to 1000 nM
4,"O=c1n(Cc2c(F)cccc2F)cnn1-c1ccc(Oc2ccnc(NC34CC(C3)C4)c2)cc1 [Example 306, 2-[4-[[2-(1-bicyclo[1.1.1]pentanylamino)-4-pyridyl]oxy]phenyl]-4-[(2,6-difluorophenyl)methyl]-1,2,4-triazol-3-one]",100 to 1000 nM
5,"O=c1n(Cc2c(F)cccc2F)cnn1-c1ccc(Oc2c(N3CC4(CCOCC4)C3)ccnc2Cl)cc1 [Example 307, 2-(4-((2-chloro-4-(7-oxa-2-azaspiro[3.5]nonan-2-yl)pyridin-3-yl)oxy)phenyl)-4-(2,6-difluorobenzyl)-2,4-dihydro-3H-1,2,4-triazol-3-one]",100 to 1000 nM
6,"Cc1cc(-n2ncn(Cc3c(F)cccc3F)c2=O)ccc1Oc1cc(NC23CC(C#N)(C2)C3)ncc1F [Example 308, 3-((4-(4-(4-(2,6-difluorobenzyl)-5-oxo-4,5-dihydro-1H-1,2,4-triazol-1-yl)-2-methylphenoxy)-5-fluoropyridin-2-yl)amino)bicyclo[1.1.1]pentane-1-carbonitrile]",100 to 1000 nM
7,"CC(C)(C)OC(=O)Nc1cc(Oc2ccc(-n3ncn(Cc4c(F)cccc4F)c3=O)cc2)ccn1 [Example 309, tert-butyl (4-(4-(4-(2,6-difluorobenzyl)-5-oxo-4,5-dihydro-1H-1,2,4-triazol-1-yl)phenoxy)pyridin-2-yl)carbamate]",< 100 nM
8,"Nc1cc(Oc2ccc(-n3ncn(Cc4c(F)cccc4F)c3=O)cc2)ccn1 [Example 310, 2-(4-((2-aminopyridin-4-yl)oxy)phenyl)-4-(2,6-difluorobenzyl)-2,4-dihydro-3H-1,2,4-triazol-3-one]",100 to 1000 nM
9,"CC(C)(C)OC(=O)Nc1cc(Oc2ccc(-n3ncn(Cc4ccccc4)c3=O)cc2)ccn1 [Example 311, tert-butyl (4-(4-(4-benzyl-5-oxo-4,5-dihydro-1H-1,2,4-triazol-1-yl)phenoxy)pyridin-2-yl)carbamate]",100 to 1000 nM
10,"Cc1nc(CC2CNC2)sc1Oc1ccc(-n2ncn(Cc3c(F)cccc3F)c2=O)cc1 [Example 312, 2-(4-((2-(azetidin-3-ylmethyl)-4-methylthiazol-5-yl)oxy)phenyl)-4-(2,6-difluorobenzyl)-2,4-dihydro-3H-1,2,4-triazol-3-one]",< 100 nM
11,"N#CC12CC(Nc3nccc(Oc4ccc(-n5ncn(Cc6c(F)cccc6F)c5=O)cc4Cl)c3Cl)(C1)C2 [Example 313, 3-((3-chloro-4-(2-chloro-4-(4-(2,6-difluorobenzyl)-5-oxo-4,5-dihydro-1H-1,2,4-triazol-1-yl)phenoxy)pyridin-2-yl)amino)bicyclo[1.1.1]pentane-1-carbonitrile]",100 to 1000 nM
12,"COC1(C#N)CN(c2cc(Oc3ccc(-n4ncn(Cc5c(F)cccc5F)c4=O)cc3Cl)ccn2)C1 [Example 314, 1-(4-(2-chloro-4-(4-(2,6-difluorobenzyl)-5-oxo-4,5-dihydro-1H-1,2,4-triazol-1-yl)phenoxy)pyridin-2-yl)-3-methoxyazetidine-3-carbonitrile]",< 100 nM
13,"O=c1n(Cc2c(F)cccc2F)cnn1-c1ccc(Oc2ccnc(N3CC4(CCN4)C3)c2)cc1 [Example 315, 2-(4-((2-(1,6-diazaspiro[3.3]heptan-6-yl)pyridin-4-yl)oxy)phenyl)-4-(2,6-difluorobenzyl)-2,4-dihydro-3H-1,2,4-triazol-3-one]",< 100 nM
14,"C[C@H]1C[C@H](N)CN1c1cc(Oc2ccc(-n3ncn(Cc4c(F)cccc4F)c3=O)cc2)ccn1 [Example 316, 2-(4-((2-((2S,4S)-4-amino-2-methylpyrrolidin-1-yl)pyridin-4-yl)oxy)phenyl)-4-(2,6-difluorobenzyl)-2,4-dihydro-3H-1,2,4-triazol-3-one]",< 100 nM
15,"CC(C)(C)OC(=O)N1CCC12CN(c1cc(Oc3ccc(-n4ncn(Cc5c(F)cccc5F)c4=O)cc3)ccn1)C2 [Example 317, tert-butyl 6-(4-(4-(4-(2,6-difluorobenzyl)-5-oxo-4,5-dihydro-1H-1,2,4-triazol-1-yl)phenoxy)pyridin-2-yl)-1,6-diazaspiro[3.3]heptane-1-carboxylate]",1000 to 10000 nM
16,"CCNC1CN(c2cc(Oc3ccc(-n4ncn(Cc5c(F)cccc5F)c4=O)cc3)ccn2)C1 [Example 318, 4-(2,6-difluorobenzyl)-2-(4-((2-(3-(ethylamino)azetidin-1-yl)pyridin-4-yl)oxy)phenyl)-2,4-dihydro-3H-1,2,4-triazol-3-one]",100 to 1000 nM
17,"COC1(C#N)CN(c2cc(Oc3ccc(-n4ncn(Cc5c(F)cccc5F)c4=O)cc3)c(Cl)cn2)C1 [Example 319, 1-(5-chloro-4-(4-(4-(2,6-difluorobenzyl)-5-oxo-4,5-dihydro-1H-1,2,4-triazol-1-yl)phenoxy)pyridin-2-yl)-3-methoxyazetidine-3-carbonitrile]",< 100 nM
18,"COC1(C#N)CN(c2cc(Oc3ccc(-n4ncn(Cc5c(F)cccc5F)c4=O)cc3)c(C)cn2)C1 [Example 320, 1-(4-(4-(4-(2,6-difluorobenzyl)-5-oxo-4,5-dihydro-1H-1,2,4-triazol-1-yl)phenoxy)-5-methylpyridin-2-yl)-3-methoxyazetidine-3-carbonitrile]",< 100 nM
19,"CC1(N)CN(c2nccc(Oc3ccc(-n4ncn(Cc5c(F)cccc5F)c4=O)cc3)c2F)C1 [Example 321, 2-(4-((2-(3-amino-3-methylazetidin-1-yl)-3-fluoropyridin-4-yl)oxy)phenyl)-4-(2,6-difluorobenzyl)-2,4-dihydro-3H-1,2,4-triazol-3-one]",< 100 nM
20,"NC1CN(c2cc(Oc3ccc(-n4ncn(Cc5c(F)cccc5F)c4=O)cc3)ccn2)C1 [Example 322, 2-(4-((2-(3-aminoazetidin-1-yl)pyridin-4-yl)oxy)phenyl)-4-(2,6-difluorobenzyl)-2,4-dihydro-3H-1,2,4-triazol-3-one]",100 to 1000 nM
21,"CC1(C#N)CN(c2cc(Oc3ccc(-n4ncn(Cc5c(F)cccc5F)c4=O)cc3)c(F)cn2)C1 [Example 323, 1-(4-(4-(4-(2,6-difluorobenzyl)-5-oxo-4,5-dihydro-1H-1,2,4-triazol-1-yl)phenoxy)-5-fluoropyridin-2-yl)-3-methylazetidine-3-carbonitrile]",100 to 1000 nM
22,"CCOC1CN(c2cc(Oc3ccc(-n4ncn(Cc5c(F)cccc5F)c4=O)cc3)c(F)cn2)C1 [Example 324, 4-(2,6-difluorobenzyl)-2-(4-((2-(3-ethoxyazetidin-1-yl)-5-fluoropyridin-4-yl)oxy)phenyl)-2,4-dihydro-3H-1,2,4-triazol-3-one]",< 100 nM
23,"N#CC12CC(Nc3cc(Oc4ccc(-n5ncn(Cc6c(F)cccc6F)c5=O)cc4)c(Cl)cn3)(C1)C2 [Example 325, 3-((5-chloro-4-(4-(4-(2,6-difluorobenzyl)-5-oxo-4,5-dihydro-1H-1,2,4-triazol-1-yl)phenoxy)pyridin-2-yl)amino)bicyclo[1.1.1]pentane-1-carbonitrile]",< 100 nM
24,"CCOC1CN(c2cc(Oc3ccc(-n4ncn(Cc5c(F)cccc5F)c4=O)cc3)c(Cl)cn2)C1 [Example 326, 2-(4-((5-chloro-2-(3-ethoxyazetidin-1-yl)pyridin-4-yl)oxy)phenyl)-4-(2,6-difluorobenzyl)-2,4-dihydro-3H-1,2,4-triazol-3-one]",< 100 nM
25,"CC(C)(C)OC(=O)NC1CN(c2cc(Oc3ccc(-n4ncn(Cc5c(F)cccc5F)c4=O)cc3)ccn2)C1 [Example 327, tert-butyl (1-(4-(4-(4-(2,6-difluorobenzyl)-5-oxo-4,5-dihydro-1H-1,2,4-triazol-1-yl)phenoxy)pyridin-2-yl)azetidin-3-yl)carbamate]",< 100 nM
26,"O=c1n(Cc2c(F)cccc2F)cnn1-c1ccc(Oc2ccnc(NC3CC(F)(F)C3)c2)cc1 [Example 328, 4-(2,6-difluorobenzyl)-2-(4-((2-((3,3-difluorocyclobutyl)amino)pyridin-4-yl)oxy)phenyl)-2,4-dihydro-3H-1,2,4-triazol-3-one]",100 to 1000 nM
27,"CC1(O)CN(c2cc(Oc3ccc(-n4ncn(Cc5c(F)cccc5F)c4=O)cc3)ccn2)C1 [Example 329, 4-(2,6-difluorobenzyl)-2-(4-((2-(3-hydroxy-3-methylazetidin-1-yl)pyridin-4-yl)oxy)phenyl)-2,4-dihydro-3H-1,2,4-triazol-3-one]",< 100 nM
28,"O=c1n(Cc2c(F)cccc2F)cnn1-c1ccc(Oc2ccnc(N3CCC4(CCOC4)C3)c2)cc1 (stereo not drawn) [Example 330, 2-(4-((2-(2-oxa-7-azaspiro[4.4]nonan-7-yl)pyridin-4-yl)oxy)phenyl)-4-(2,6-difluorobenzyl)-2,4-dihydro-3H-1,2,4-triazol-3-one]",< 100 nM
29,"O=c1n(Cc2c(F)cccc2F)cnn1-c1ccc(Oc2ccnc(N3CC4(CCCO4)C3)c2)cc1 [Example 331, 2-(4-((2-(5-oxa-2-azaspiro[3.4]octan-2-yl)pyridin-4-yl)oxy)phenyl)-4-(2,6-difluorobenzyl)-2,4-dihydro-3H-1,2,4-triazol-3-one]",< 100 nM
30,"NC1CC2(C1)CC(Nc1cc(Oc3ccc(-n4ncn(Cc5c(F)cccc5F)c4=O)cc3)ccn1)C2 (stereo not drawn) [Example 332, 2-(4-((2-((6-aminospiro[3.3]heptan-2-yl)amino)pyridin-4-yl)oxy)phenyl)-4-(2,6-difluorobenzyl)-2,4-dihydro-3H-1,2,4-triazol-3-one]",100 to 1000 nM
